{"source": "patent US11814391B2", "about": "“Macrocyclic compounds for the treatment of medical disorders” (Achillion Pharmaceuticals, Inc., priority 2018, dated 2023)", "note": "pIC50: −log10 of the molar value.", "data": [{"target": "Human Factor D (Homo sapiens (Human), UniProt P00746)", "sequence (P00746 26-253)": "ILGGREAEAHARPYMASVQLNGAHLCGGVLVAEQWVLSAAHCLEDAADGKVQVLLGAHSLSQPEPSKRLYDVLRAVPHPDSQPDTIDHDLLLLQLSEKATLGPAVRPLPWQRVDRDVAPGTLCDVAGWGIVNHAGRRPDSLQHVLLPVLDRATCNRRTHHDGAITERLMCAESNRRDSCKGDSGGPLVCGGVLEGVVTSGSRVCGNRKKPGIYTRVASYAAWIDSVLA", "assay": "Human Factor D assay", "type": "biochemical", "details": "Human Factor D 80 nM, substrate Z-L-Lys-SBzl, A405; read-out: IC50 (Stars)", "description": "The assay of Example 3 was used to determine the IC50's of the compounds. Other standard factor D inhibition assays are also available.\nHuman Factor D (purified from human serum, Complement Technology, Inc.) at 80 nM final concentration is incubated with test compound at various concentrations for 5 min at room temperature in 50 mM Tris, 1M NaCl, pH 7.5. A synthetic substrate Z-L-Lys-SBzI and DTNB (Ellman's reagent) are added to final concentrations of 100 μM each. Absorbance at 405 nm (A405) is recorded at 30 second intervals for 30 min using a microplate spectrophotometer. IC50 values are calculated by nonlinear regression of complement Factor D reaction rates as a function of test compound concentration.", "values": [{"smiles": "CC(=O)c1nn2c3c(cc(-c4cnc(C)nc4)cc13)CCCCC[C@@H](C)C(=O)NC[C@@]13C[C@@H](C(=O)Nc4ccc(F)c(Br)n4)N(C(=O)C2)[C@@H]1C3", "note": "[Compound 16, (4^1R,4^3S,4^5R,8R)-1^3-acetyl-N-(6-bromo-5-fluoropyridin-2-yl)-8-methyl-1^5-(2-methylpyrimidin-5-yl)-3,7-dioxo-1^1H-4^2,6-diaza-1(1,7)-indazola-4(2,5)-bicyclo[3.1.0]hexanacyclotridecaphane-4^3-carboxamide]", "pIC50": "> 6.00"}, {"smiles": "CC(=O)c1nn2c3c(cc(OCC(C)C)cc13)CCCCCCC(=O)NC[C@@]13C[C@@H](C(=O)Nc4nc(C(F)(F)F)ccc4C)N(C(=O)C2)[C@@H]1C3", "note": "[Compound 17, (4^1R,4^3S,4^5R)-1^3-acetyl-1^5-isobutoxy-N-(3-methyl-6-(trifluoromethyl)pyridin-2-yl)-3,7-dioxo-1^1H-4^2,6-diaza-1(1,7)-indazola-4(2,5)-bicyclo[3.1.0]hexanacyclotridecaphane-4^3-carboxamide]", "pIC50": "> 6.00"}, {"smiles": "CC(=O)c1nn2c3c(cc(C)cc13)CCCCCCC(=O)NC[C@@]13C[C@@H](C(=O)Nc4nc(C(F)(F)F)ccc4C)N(C(=O)C2)[C@@H]1C3", "note": "[Compound 18, (4^1R,4^3S,4^5R)-1^3-acetyl-1^5-methyl-N-(3-methyl-6-(trifluoromethyl)pyridin-2-yl)-3,7-dioxo-1^1H-4^2,6-diaza-1(1,7)-indazola-4(2,5)-bicyclo[3.1.0]hexanacyclotridecaphane-4^3-carboxamide]", "pIC50": "> 6.00"}, {"smiles": "CC(=O)c1nn2c3c(cc(OC(C)C)cc13)CCCCCCC(=O)NC[C@@]13C[C@@H](C(=O)Nc4nc(C(F)(F)F)ccc4C)N(C(=O)C2)[C@@H]1C3", "note": "[Compound 19, (4^1R,4^3S,4^5R)-1^3-acetyl-1^5-isopropoxy-N-(3-methyl-6-(trifluoromethyl)pyridin-2-yl)-3,7-dioxo-1^1H-4^2,6-diaza-1(1,7)-indazola-4(2,5)-bicyclo[3.1.0]hexanacyclotridecaphane-4^3-carboxamide]", "pIC50": "> 6.00"}, {"smiles": "CC(=O)c1nn2c3c(cc(CCC(C)C)cc13)CCCCCCC(=O)NC[C@@]13C[C@@H](C(=O)Nc4nc(C(F)(F)F)ccc4C)N(C(=O)C2)[C@@H]1C3", "note": "[Compound 20, (4^1R,4^3S,4^5R)-1^3-acetyl-1^5-isopentyl-N-(3-methyl-6-(trifluoromethyl)pyridin-2-yl)-3,7-dioxo-1^1H-4^2,6-diaza-1(1,7)-indazola-4(2,5)-bicyclo[3.1.0]hexanacyclotridecaphane-4^3-carboxamide]", "pIC50": "> 6.00"}, {"smiles": "CC(=O)c1nn2c3c(cc(C(C)C)cc13)CCCCCCC(=O)NC[C@@]13C[C@@H](C(=O)Nc4nc(C(F)(F)F)ccc4C)N(C(=O)C2)[C@@H]1C3", "note": "[Compound 21, (4^1R,4^3S,4^5R)-1^3-Acetyl-1^5-isopropyl-N-(3-methyl-6-(trifluoromethyl)pyridin-2-yl)-3,7-dioxo-1^1H-4^2,6-diaza-1(1,7)-indazola-4(2,5)-bicyclo[3.1.0]hexanacyclotridecaphane-4^3-carboxamide]", "pIC50": "> 6.00"}, {"smiles": "CC(=O)c1nn2c3c(cc(-c4cnc5cc(C)nn5c4)cc13)CCCCC[C@@H](C)C(=O)NC[C@@]13C[C@@H](C(=O)Nc4nc(C(F)(F)F)ccc4C)N(C(=O)C2)[C@@H]1C3", "note": "[Compound 22, (4^1R,4^3S,4^5R,8R)-1^3-acetyl-8-methyl-N-(3-methyl-6-(trifluoromethyl)pyridin-2-yl)-15-(2-methylpyrazolo[1,5-a]pyrimidin-6-yl)-3,7-dioxo-1^1H-4^2,6-diaza-1(1,7)-indazola-4(2,5)-bicyclo[3.1.0]hexanacyclotridecaphane-4^3-carboxamide]", "pIC50": "> 6.00"}, {"smiles": "CC(=O)c1nn2c3c(cc(-c4cnc(C)cn4)cc13)CCCCC[C@@H](C)C(=O)NC[C@@]13C[C@@H](C(=O)Nc4nc(C(F)(F)F)ccc4C)N(C(=O)C2)[C@@H]1C3", "note": "[Compound 23, (4^1R,4^3S,4^5R,8R)-1^3-acetyl-8-methyl-N-(3-methyl-6-(trifluoromethyl)pyridin-2-yl)-15-(5-methylpyrazin-2-yl)-3,7-dioxo-1^1H-4^2,6-diaza-1(1,7)-indazola-4(2,5)-bicyclo[3.1.0]hexanacyclotridecaphane-4^3-carboxamide]", "pIC50": "> 6.00"}]}]}
